pIC50: −log10 of the molar value.
target: T1, ROCKα/ROCKII (Homo sapiens, UniProt O75116); assay: ROCK inhibition, Method 2 fluorescence polarization (FP) assay, ROCK IMAP Kit; assay type: biochemical; conditions: 10 μM ATP, read-out: IC50 Meth. 2
T1 construct: purchased Upstate Biotechnology 14-451
Protocol: The inhibition assays were performed with a fluorescence polarization (FP) assay using the commercially available ROCK IMAP Kit from Molecular Devices (Product ID. No. R8093), essentially in accordance with the protocol supplied by the manufacturer. […] The enzyme mix ROCKα/ROCKII was obtained from Upstate Biotechnology (Product ID No 14-451).
In summary, all compounds were screened in the wells of a 384 well plate for enzymatic inhibition with concentrations varying from 100 μM to 0.3 nM using a stepwise 3 (or 2)-fold dilution.
To perform the assay, 1 μl of a solution of the compound to be tested in DMSO (at each concentration) was added to 2 μl of a solution of the enzyme in 10 mM Tris-HCl, 10 mM MgCl2, 0.1% BSA, 0.05% NaN3, pH 7,2. The final concentration of the enzyme was 2.6 nM.
After incubating for 30 minutes at RT, 2 μl of a mixture of ATP and the protein substrate in 10 mM Tris-HCl, 10 mM MgCl2, 0.1% BSA, 0.05% NaN3, pH 7.2 was added. The final concentration of the ATP was 10 μM and final concentration of protein substrate was 0.2 μM.
After incubating for 60 minutes at RT, 12 μl of the IMAP Binding Solution (mix of the IMAP Binding Buffer A (1×) and the IMAP Binding Reagent (from the ROCK IMAP kit)) was added.
The mixture thus obtained (total volume: 17 μl) was incubated for 60 minutes at RT, upon which the fluorescence polarization was measured using an automated plate reader (Perkin Elmer, Model Envision 2100-0010 HTS) with FP filters: excitation filter FITC FP 480 and emission filters FITC FP P-pol 535 and FITC FP S-pol 535 (Perkin-Elmer). The results were fitted to a curve using the XL-Fit algorithm and IC50 values were calculated for each fitted curve, again using the XL-Fit algorithm.

T1 sequence (O75116 whole entry): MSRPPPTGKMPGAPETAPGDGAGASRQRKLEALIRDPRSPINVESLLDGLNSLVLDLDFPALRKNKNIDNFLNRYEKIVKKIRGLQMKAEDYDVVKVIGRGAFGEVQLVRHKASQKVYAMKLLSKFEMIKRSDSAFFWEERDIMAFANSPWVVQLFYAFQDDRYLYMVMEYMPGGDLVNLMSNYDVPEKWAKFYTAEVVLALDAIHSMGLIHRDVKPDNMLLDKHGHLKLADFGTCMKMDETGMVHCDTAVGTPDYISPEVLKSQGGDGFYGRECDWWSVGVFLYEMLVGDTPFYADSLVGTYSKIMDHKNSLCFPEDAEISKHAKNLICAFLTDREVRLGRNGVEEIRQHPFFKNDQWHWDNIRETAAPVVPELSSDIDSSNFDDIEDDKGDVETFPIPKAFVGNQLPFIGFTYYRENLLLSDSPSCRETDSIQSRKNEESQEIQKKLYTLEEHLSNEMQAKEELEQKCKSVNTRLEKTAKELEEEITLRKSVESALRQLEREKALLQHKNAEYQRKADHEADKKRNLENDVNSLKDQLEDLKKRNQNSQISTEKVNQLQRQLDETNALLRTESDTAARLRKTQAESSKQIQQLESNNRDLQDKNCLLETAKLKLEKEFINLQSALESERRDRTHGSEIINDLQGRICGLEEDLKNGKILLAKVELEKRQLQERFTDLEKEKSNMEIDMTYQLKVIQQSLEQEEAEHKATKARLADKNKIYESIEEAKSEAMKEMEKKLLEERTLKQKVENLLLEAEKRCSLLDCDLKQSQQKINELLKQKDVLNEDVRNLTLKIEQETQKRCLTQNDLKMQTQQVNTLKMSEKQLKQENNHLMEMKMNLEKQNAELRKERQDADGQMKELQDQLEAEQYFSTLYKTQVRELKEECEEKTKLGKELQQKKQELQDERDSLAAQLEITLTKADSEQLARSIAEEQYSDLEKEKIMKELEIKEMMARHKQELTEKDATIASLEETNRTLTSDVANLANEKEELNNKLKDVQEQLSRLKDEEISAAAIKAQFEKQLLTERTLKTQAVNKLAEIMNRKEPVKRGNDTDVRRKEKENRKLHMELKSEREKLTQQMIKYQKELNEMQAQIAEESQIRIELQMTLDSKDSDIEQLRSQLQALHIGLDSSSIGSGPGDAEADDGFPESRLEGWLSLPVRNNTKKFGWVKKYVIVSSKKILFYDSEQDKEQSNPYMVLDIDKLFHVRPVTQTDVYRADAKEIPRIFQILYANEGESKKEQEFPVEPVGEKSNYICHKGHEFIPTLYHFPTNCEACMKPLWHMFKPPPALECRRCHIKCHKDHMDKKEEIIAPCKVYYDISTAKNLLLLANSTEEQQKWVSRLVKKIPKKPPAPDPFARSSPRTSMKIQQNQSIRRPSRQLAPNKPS

Compound	pIC50
CCCCCOC(=O)c1cccc(-c2cc(C(=O)Nc3ccncc3)ccc2C(C)N)c1 (centres unmarked) [Compound 16, 2′-(1-Amino-ethyl)-5′-(pyridin-4-ylcarbamoyl)-biphenyl-3-carboxylic acid pentyl ester]	6.00 to 7.00
COc1cc(OC(=O)c2cccc(-c3cc(C(=O)Nc4ccncc4)ccc3C(C)N)c2)cc(OC)c1OC (centres unmarked) [Compound 80, 2′-(1-Amino-ethyl)-5′-(pyridin-4-ylcarbamoyl)-biphenyl-3-carboxylic acid 3,4,5-trimethoxy-phenyl ester]	6.00 to 7.00
CCCCCCCCCCOC(=O)c1cccc(-c2cc(C(=O)Nc3ccncc3)ccc2C(C)N)c1 (centres unmarked) [Compound 20, 2′-(1-Amino-ethyl)-5′-(pyridin-4-ylcarbamoyl)-biphenyl-3-carboxylic acid decyl ester]	5.00 to 6.00
C=CCCCCCCCCOC(=O)c1cccc(-c2cc(C(=O)Nc3ccncc3)ccc2C(C)N)c1 (centres unmarked) [Compound 25, 2′-(1-Amino-ethyl)-5′-(pyridin-4-ylcarbamoyl)-biphenyl-3-carboxylic acid dec-9-enyl ester]	6.00 to 7.00
CCCCCCCOC(=O)c1cccc(-c2cc(C(=O)Nc3ccncc3)ccc2C(C)N)c1 (centres unmarked) [Compound 18, 2′-(1-Amino-ethyl)-5′-(pyridin-4-ylcarbamoyl)-biphenyl-3-carboxylic acid heptyl ester]	6.00 to 7.00
2′-(1-Amino-ethyl)-5′- (pyridin-4-ylcarbamoyl)- biphenyl-3-carboxylic acid 4-methylsulfanyl-phenyl ester [Compound 86]	> 7.00
CCCCCCCCOC(=O)c1cccc(-c2cc(C(=O)Nc3ccncc3)ccc2C(C)N)c1 (centres unmarked) [Compound 19, 2′-(1-Amino-ethyl)-5′-(pyridin-4-ylcarbamoyl)-biphenyl-3-carboxylic acid octyl ester]	6.00 to 7.00
CC(N)c1ccc(C(=O)Nc2ccncc2F)cc1-c1cccc(OCC(=O)Oc2ccccc2)c1 (centres unmarked) [Compound 142, [2′-(1-Amino-ethyl)-5′-(3-fluoro-pyridin-4-ylcarbamoyl)-biphenyl-3-yloxy]-acetic acid phenyl ester]	6.00 to 7.00
COc1cc(OC)cc(OC(=O)c2cccc(-c3cc(C(=O)Nc4ccncc4F)ccc3C(C)N)c2)c1 (centres unmarked) [Compound 76, 2′-(1-Amino-ethyl)-5′-(3-fluoro-pyridin-4-ylcarbamoyl)-biphenyl-3-carboxylic acid 3,5-dimethoxy-phenyl ester]	6.00 to 7.00
CC(N)c1ccc(C(=O)Nc2ccncc2)cc1-c1cccc(C(=O)OCc2c(F)c(F)c(F)c(F)c2F)c1 (centres unmarked) [Compound 83, 2′-(1-Amino-ethyl)-5′-(pyridin-4-ylcarbamoyl)-biphenyl-3-carboxylic acid pentafluoro-phenylmethyl ester]	6.00 to 7.00
CC(N)c1ccc(C(=O)Nc2ccncc2)cc1-c1cccc(C(=O)OCC2COc3ccccc3O2)c1 (centres unmarked) [Compound 56, 2′-(1-Amino-ethyl)-5′-(pyridin-4-ylcarbamoyl)-biphenyl-3-carboxylic acid 2,3-dihydro-benzo[1,4]dioxin-2-ylmethyl ester]	6.00 to 7.00
CC(N)c1ccc(C(=O)Nc2ccncc2F)cc1-c1cccc(C(=O)OCCF)c1 (centres unmarked) [Compound 61, 2′-(1-Amino-ethyl)-5′-(3-fluoro-pyridin-4-ylcarbamoyl)-biphenyl-3-carboxylic acid 2-fluoro-ethyl ester]	6.00 to 7.00
CCCCCCCCCCCCCCCCOC(=O)c1cccc(-c2cc(C(=O)Nc3ccncc3)ccc2C(C)N)c1 (centres unmarked) [Compound 24, 2′-(1-Amino-ethyl)-5′-(pyridin-4-ylcarbamoyl)-biphenyl-3-carboxylic acid hexadecyl ester]	5.00 to 6.00
CC(N)c1ccc(C(=O)Nc2ccncc2F)cc1-c1cccc(C(=O)OCCO)c1 (centres unmarked) [Compound 67, 2′-(1-Amino-ethyl)-5′-(3-fluoro-pyridin-4-ylcarbamoyl)-biphenyl-3-carboxylic acid 2-hydroxy-ethyl ester]	> 7.00
CC(N)c1ccc(C(=O)Nc2ccncc2)cc1-c1cccc(C(=O)OCC(F)(F)F)c1 (centres unmarked) [Compound 63, 2′-(1-Amino-ethyl)-5′-(pyridin-4-ylcarbamoyl)-biphenyl-3-carboxylic acid 2,2,2-trifluoro-ethyl ester]	6.00 to 7.00
CCCCCCCCCCCOC(=O)c1cccc(-c2cc(C(=O)Nc3ccncc3)ccc2C(C)N)c1 (centres unmarked) [Compound 21, 2′-(1-Amino-ethyl)-5′-(pyridin-4-ylcarbamoyl)-biphenyl-3-carboxylic acid undecyl ester]	5.00 to 6.00
COc1cccc(OC)c1OC(=O)c1cccc(-c2cc(C(=O)Nc3ccncc3)ccc2C(C)N)c1 (centres unmarked) [Compound 74, 2′-(1-Amino-ethyl)-5′-(pyridin-4-ylcarbamoyl)-biphenyl-3-carboxylic acid 2,6-dimethoxy-phenyl ester]	6.00 to 7.00
CCOC(=O)c1cccc(-c2cc(C(=O)Nc3ccncc3F)ccc2C(C)N)c1 (centres unmarked) [Compound 9, 2′-(1-Amino-ethyl)-5′-(3-fluoro-pyridin-4-ylcarbamoyl)-biphenyl-3-carboxylic acid ethyl ester]	> 7.00
COC(=O)c1cccc(-c2cc(C(=O)Nc3ccncc3)ccc2C(C)N)c1 (centres unmarked) [Compound 4, 2′-(1-Amino-ethyl)-5′-(pyridin-4-ylcarbamoyl)-biphenyl-3-carboxylic acid methyl ester]	> 7.00
CC(N)c1ccc(C(=O)Nc2ccncc2)cc1-c1cccc(NC(=O)CC2CC(=O)Oc3ccccc32)c1 (centres unmarked) [Compound 155, 6-(1-Amino-ethyl)-3′-[2-(2-oxo-chroman-4-yl)-acetylamino]-biphenyl-3-carboxylic acid pyridin-4-ylamide]	> 7.00
CCCCCCCCCCCCOC(=O)c1cccc(-c2cc(C(=O)Nc3ccncc3)ccc2C(C)N)c1 (centres unmarked) [Compound 22, 2′-(1-Amino-ethyl)-5′-(pyridin-4-ylcarbamoyl)-biphenyl-3-carboxylic acid dodecyl ester]	5.00 to 6.00

Next, values leading:

pIC50	Compound
> 7.00	CC(N)c1ccc(C(=O)Nc2ccncc2)cc1-c1cccc(C(=O)OCCCl)c1 (centres unmarked) [Compound 62, 2′-(1-Amino-ethyl)-5′-(pyridin-4-ylcarbamoyl)-biphenyl-3-carboxylic acid 2-chloro-ethyl ester]
> 7.00	CC#CCOC(=O)c1cccc(-c2cc(C(=O)Nc3ccncc3)ccc2C(C)N)c1 (centres unmarked) [Compound 59, 2′-(1-Amino-ethyl)-5′-(pyridin-4-ylcarbamoyl)-biphenyl-3-carboxylic acid but-2-ynyl ester]
> 7.00	CC(N)c1ccc(C(=O)Nc2ccncc2)cc1-c1cccc(C(=O)OCC(Cl)(Cl)Cl)c1 (centres unmarked) [Compound 64, 2′-(1-Amino-ethyl)-5′-(pyridin-4-ylcarbamoyl)-biphenyl-3-carboxylic acid 2,2,2-trichloro-ethyl ester]
> 7.00	CC(N)c1ccc(C(=O)Nc2ccncc2)cc1-c1cccc(C(=O)OCCc2ccccn2)c1 (centres unmarked) [Compound 93, 2′-(1-Amino-ethyl)-5′-(pyridin-4-ylcarbamoyl)-biphenyl-3-carboxylic acid 2-pyridin-2-yl-ethyl ester]
> 7.00	COc1cc(OC(=O)c2cccc(-c3cc(C(=O)Nc4ccncc4F)ccc3C(C)N)c2)cc(OC)c1OC (centres unmarked) [Compound 79, 2′-(1-Amino-ethyl)-5′-(3-fluoro-pyridin-4-ylcarbamoyl)-biphenyl-3-carboxylic acid 3,4,5-trimethoxy phenylester]
> 7.00	CCOC(=O)CCNC(=O)c1cccc(-c2cc(C(=O)Nc3ccncc3)ccc2C(C)N)c1 (centres unmarked) [Compound 105, 3-{[2′-(1-Amino-ethyl)-5′-(pyridin-4-ylcarbamoyl)-biphenyl-3-carbonyl]-amino}-propionic acid ethyl ester]
> 7.00	CC(N)c1ccc(C(=O)Nc2ccncc2)cc1-c1cccc(C(=O)OCC(=O)c2ccc(Br)cc2)c1 (centres unmarked) [Compound 96, 2′-(1-Amino-ethyl)-5′-(pyridin-4-ylcarbamoyl)-biphenyl-3-carboxylic acid 2-(4-bromo-phenyl)-2-oxo-ethyl ester]
> 7.00	CC(N)c1ccc(C(=O)Nc2ccncc2)cc1-c1cccc(C(=O)OCCCCCl)c1 (centres unmarked) [Compound 69, 2′-(1-Amino-ethyl)-5′-(pyridin-4-ylcarbamoyl)-biphenyl-3-carboxylic acid 4-chloro-butyl ester]
> 7.00	CC(N)c1ccc(C(=O)Nc2ccncc2)cc1-c1cccc(C(=O)OC2CCCC2)c1 (centres unmarked) [Compound 33, 2′-(1-Amino-ethyl)-5′-(pyridin-4-ylcarbamoyl)-biphenyl-3-carboxylic acid cyclopentyl ester]
> 7.00	NCc1ccc(C(=O)Nc2ccncc2F)cc1-c1cccc(C(=O)Oc2ccccc2)c1 [Compound 175]
> 7.00	CSc1ccc(OC(=O)c2cccc(-c3cc(C(=O)Nc4ccncc4)ccc3C(C)N)c2)cc1 (centres unmarked) [Compound 82, 2′-(1-Amino-ethyl)-5′-(pyridin-4-ylcarbamoyl)-biphenyl-3-carboxylic acid 4-methylsulfanyl-phenyl ester]
